Measurements: article PMC11322497 (Frontiers in Pharmacology, 2024)

Legend:
[1] = In vitro plasma protein binding in rabbit blood (rapid equilibrium dialysis, LC-MS/MS); assay type: in vitro ADME; conditions: nominal 0.2, 2 and 20 μg/mL, read-out: unbound free fraction
[2] = test system: high fat diet (HFD) rabbit model of metabolic-associated steatohepatitis (MASH); assay: HFD rabbit study, acute 5-day treatment: liver histomorphology (Giemsa, Masson's trichrome, PSR, SHG); assay type: in vivo, New Zealand White rabbits; conditions: 30 mg/kg p.o. 5 days, week 12; for Ballooning score 0 (no ballooning), share of animals / Ballooning score 1 (few ballooned cells), share of animals / Ballooning score 2 (prominent ballooning), share of animals / Fibrosis (Ishak Score) 0, share of animals / Fibrosis (Ishak Score) 1, share of animals / Fibrosis (Ishak Score) 2, share of animals / Fibrosis (Ishak Score) 3, share of animals / Fibrosis (Ishak Score) 4, share of animals / Fibrosis (Ishak Score) 5, share of animals / Inflammation score 0 (no foci), share of animals / Inflammation score 1 (<2 foci), share of animals / Inflammation score 2 (2–4 foci), share of animals / Inflammation score 3 (> 4 foci), share of animals: n = 3
Protocol: After 1 week of standard diet, animals (n = 12) were randomly assigned to the following groups (Table 1A): • Control rabbits continued to receive a regular diet (RD) for 12 weeks and were treated for 5 days (days 1–5, p.o.), during the last week before culling, with either vehicle; RD+1W Veh group] or GB1211 (30 mg/kg; RD + 1W 30 mg group); • Rabbits received a high fat diet (HFD) for 12 weeks (RD implemented with 0.5% cholesterol and 2.5% vegetable fat) and were treated for 5 days (days 1–5, p.o.), during the last week before culling, with either vehicle (HFD + 1W Veh group) or GB1211 (30 mg/kg; HFD + 1W 30 mg group).
Liver specimens were fixed in 10% buffered formalin (Sigma-Aldrich Corp., St. Louis, MO), paraffin embedded and sectioned at a thickness of 5 μm with a microtome. The slides were stained with hematoxylin and eosin (H&E; both Bio-Optica, Milan, Italy), following standard protocols for histological analysis, to evaluate the general morphology and tissue structure, and then analyzed to evaluate inflammation and […] using Giemsa and Masson’s trichrome staining, respectively. Briefly, deparaffinized and rehydrated sections were incubated with Giemsa (Bio-Optica) in distilled water at ratio 1:1 or with Masson’s trichrome (Bio-Optica), following the manufacturer’s instructions, as previously described ([Vignozzi et al., 2014]). To evaluate lipid accumulation, liver specimens were also cryosectioned at a thickness of 8 μm, fixed with 4% paraformaldehyde, treated for 2–5 min with isopropanol and stained with Oil Red O (Bio-Optica) for 20 min, following the manufacturer’s instructions.
In liver, collagen content evaluation for fibrosis grade and quantification was conducted by staining using Picrosirius Red Stain kit (Bio-Optica), as per manufacturer’s instructions. Briefly, deparaffinized and rehydrated sections were incubated with the staining solution for 50 min, rinsed with the appropriate reagents and with distilled water, dehydrated through ascending alcohols and xylene, and mounted, as previously described ([Comeglio et al., 2017]).
Blinded images of unstained sections of liver were acquired using a Genesis®200 imaging system (HistoIndex, Singapore) and analyzed by Second Harmonic Generation (SHG) microscopy to visualize collagen and Two-Photon Excitation Fluorescence (TPEF) microscopy to visualize the other tissue structures as previously described ([Liu et al., 2017]).
Briefly, deparaffinized tissue sections were imaged by SHG at 780 nm (specific to collagen-1 and -3) simultaneously with TPEF at 780 nm (collected at 550 nm to visualize tissue structure). Both were captured at a ×20 objective and […] resolution. A specialized artificial intelligence analysis program developed by, and proprietary to, HistoIndex were employed to identify and quantify collagen fibres across liver regions with outputs highlighted below and as previously described ([Liu et al., 2017]): • SHG Overall Area (Percentage of total collagen in overall region). • Strings Overall N. (Number of collagen strings in overall region). • Strings Overall Length (Total length of all collagen strings in overall region). • Strings PT Area (Total area of all collagen strings in portal tract region). • Strings PT Length (Total length of all collagen strings in portal tract region). • Strings PS Area (Total area of all collagen strings in peri-sinusoidal region). • Strings PS Length (Total length of all collagen strings in peri-sinusoidal region).
The grading system for inflammation enumerated the number of foci in each 200x field assessed, according to [Kleiner et al. (2005)]: 0 = no foci; 1 = <2 foci; 2 = 2–4 foci; 3 => 4 foci. As shown in the contingency table (Table 3), statistically higher scoring grades were recorded in the HFD+1W Veh group, compared to RD+1W Veh and HFD + 1W 30 mg (both p < 0.05). […]

[3] = HFD rabbits, p < 0.001 vs. HFD + 1W Veh

In the case of `OC[C@H]1O[C@H](Sc2cncc(Br)c2)[C@H](O)[C@@H](n2cc(-c3cc(F)c(F)c(F)c3)nn2)[C@H]1O` [selvigaltin], the fraction unbound [1] was 0.141, the “Ballooning score 0 (no ballooning), share of animals” value ([2]; HFD rabbits) was 0.0% and the “Ballooning score 1 (few ballooned cells), share of animals” value ([2]; HFD rabbits) was 66.7%. The “Ballooning score 2 (prominent ballooning), share of animals” value ([2]; HFD rabbits) was 33.3%, the “Fibrosis (Ishak Score) 0, share of animals” value ([2]; HFD rabbits) was 0.0% and the “Fibrosis (Ishak Score) 1, share of animals” value ([2]; HFD rabbits) was 0.0%. The “Fibrosis (Ishak Score) 2, share of animals” value ([2]; HFD rabbits) was 33.3%, the “Fibrosis (Ishak Score) 3, share of animals” value ([2]; HFD rabbits) was 66.7% and the “Fibrosis (Ishak Score) 4, share of animals” value ([2]; HFD rabbits) was 0.0%. For the same molecule, the “Fibrosis (Ishak Score) 5, share of animals” value ([2]; HFD rabbits) was 0.0%, the “Inflammation score 0 (no foci), share of animals” value ([2]; HFD rabbits) was 100.0% and the “Inflammation score 1 (<2 foci), share of animals” value ([2]; HFD rabbits) was 0.0%. For the same molecule, the “Inflammation score 2 (2–4 foci), share of animals” value ([2]; HFD rabbits) was 0.0%, the “Inflammation score 3 (> 4 foci), share of animals” value ([2]; HFD rabbits) was 0.0% and the “Picrosirius Red percentage of fibrosis area” value [2, 3] was “significantly reduced fibrosis to RD levels”. For the same molecule, the “SHG percentage of fibrosis area” value [2, 3] was “normalized”, the “Ballooning score 0 (no ballooning), share of animals” value ([2]; RD rabbits) was 100.0% and the “Ballooning score 1 (few ballooned cells), share of animals” value ([2]; RD rabbits) was 0.0%. The “Ballooning score 2 (prominent ballooning), share of animals” value ([2]; RD rabbits) was 0.0%, the “Fibrosis (Ishak Score) 0, share of animals” value ([2]; RD rabbits) was 0.0% and the “Fibrosis (Ishak Score) 1, share of animals” value ([2]; RD rabbits) was 0.0%. For the same molecule, the “Fibrosis (Ishak Score) 2, share of animals” value ([2]; RD rabbits) was 33.3%, the “Fibrosis (Ishak Score) 3, share of animals” value ([2]; RD rabbits) was 66.7% and the “Fibrosis (Ishak Score) 4, share of animals” value ([2]; RD rabbits) was 0.0%. For the same molecule, the “Fibrosis (Ishak Score) 5, share of animals” value ([2]; RD rabbits) was 0.0%, the “Inflammation score 0 (no foci), share of animals” value ([2]; RD rabbits) was 66.7% and the “Inflammation score 1 (<2 foci), share of animals” value ([2]; RD rabbits) was 33.3%. For the same molecule, the “Inflammation score 2 (2–4 foci), share of animals” value ([2]; RD rabbits) was 0.0% and the “Inflammation score 3 (> 4 foci), share of animals” value ([2]; RD rabbits) was 0.0%.
